Consider 18 compounds from patent publication US10039282B2, “Six-membered C—N-bonded aryl sulphide and aryl sulphoxide derivatives as pesticides” (BAYER CROPSCIENCE AKTIENGESELLSCHAFT, priority 2013, dated 2018).

The test system of one series is Boophilus microplus. The series can be described thus: Boophilus microplus injection test. The settings on record: 20 μg/animal, assessed after 7 days. The series is classed as in vivo. The method, then:
1. Boophilus microplus—Injection Test
Solvent: dimethyl sulphoxide
To produce an appropriate active compound formulation, 10 mg of active compound are mixed with 0.5 ml of solvent and the concentrate is diluted with solvent to the desired concentration.
1 μl of the active compound solution is injected into the abdomen of 5 engorged adult female cattle ticks (Boophilus microplus). The animals are transferred into dishes and kept in a climate-controlled room.
The efficacy is assessed after 7 days by laying of fertile eggs. Eggs which are not visibly fertile are stored in a climate-controlled cabinet until the larvae hatch after about 42 days. An efficacy of 100% means that none of the ticks has laid any fertile eggs; 0% means that all the eggs are fertile.

The next series relates to Tetranychus urticae. The experiment in a line: Tetranychus urticae spray test, OP-resistant (bean leaf discs). In kind it is in vivo. The following applies: 500 g/ha, after 6 days. How it is done:
4. Tetranychus urticae—Spray Test, OP-Resistant
Solvent: 78.0 parts by weight of acetone
• 1.5 parts by weight of dimethylformamide Emulsifier: alkylaryl polyglycol ether
To produce further test concentrations, the preparation is diluted with emulsifier-containing water.
After 6 days, the efficacy in % is determined. 100% means that all the spider mites have been killed; 0% means that none of the spider mites have been killed.

The subject of another series is Meloidogyne incognita. The series can be described thus: Meloidogyne incognita test (sand, lettuce, gall formation after 14 days). In kind it is in vivo. The following applies: 20 ppm. The method, then:
2. Meloidogyne Incognita Test
Solvent: 125.0 parts by weight of acetone
To produce an appropriate active compound formulation, 1 part by weight of active compound is mixed with the stated amount of solvent and the concentrate is diluted with water to the desired concentration.
Vessels are filled with sand, active compound solution, an egg/larvae suspension of the southern root-knot nematode (Meloidogyne incognita) and lettuce seeds. The lettuce seeds germinate and the plants develop. The galls develop on the roots.
After 14 days, the nematicidal efficacy in % is determined by the formation of galls. 100% means that no galls were found; 0% means that the number of galls on the treated plants corresponds to the untreated control.

In the next series the test system is Phaedon cochleariae. The experiment in a line: Phaedon cochleariae spray test. In kind it is in vivo. The following applies: 500 g/ha, after 7 days. The method, then: 3. Phaedon cochleariae—Spray Test
Solvent: 78.0 parts by weight of acetone • • 1.5 parts by weight of dimethylformamide Emulsifier: alkylaryl polyglycol ether
To produce an appropriate active compound formulation, 1 part by weight of active compound is dissolved using the specified parts by weight of solvent and made up with water containing an emulsifier concentration of 1000 ppm until the desired concentration is attained. To produce further test concentrations, the preparation is diluted with emulsifier-containing water.
Discs of Chinese cabbage leaves (Brassica pekinensis) are sprayed with an active compound formulation of the desired concentration and, after drying, populated with larvae of the mustard beetle (Phaedon cochleariae).
After 7 days, the efficacy in % is determined 100% means that all the beetle larvae have been killed; 0% means that no beetle larvae have been killed.

A short description of series [1]: log P by reversed-phase HPLC analogously to OECD Guideline 117. In kind it is physicochemical. The settings on record: reversed-phase C18 HPLC column. How it is done:
The log P values were determined analogously to OECD Guideline 117 (EC Directive 92/69/EEC) by HPLC (high-performance liquid chromatography) using reversed-phase columns (C 18), by the following methods:
[a] The LC-MS determination in the acidic range is effected at pH 2.7 with 0.1% aqueous formic acid and acetonitrile (contains 0.1% formic acid) as eluents; linear gradient from 10% acetonitrile to 95% acetonitrile. log P^[…] is also referred to as log P(HCOOH). [b] LC-MS determination in the neutral range is effected at pH 7.8 with 0.001 molar aqueous ammonium hydrogencarbonate solution and acetonitrile as eluents; linear gradient from 10% acetonitrile to 95% acetonitrile. log P^[…] is also referred to as log P(neutral).
Calibration is effected with solutions of a homologous series of unbranched alkan-2-ones (having 3 to 16 carbon atoms) with known log P values (log P values determined on the basis of the retention times by linear interpolation between two successive alkanones).

Read-outs that look alike come from different tables or passages of the source.

With `Cc1ccc(-n2cnc(C(F)(F)F)cc2=O)cc1[S+]([O-])CC(F)(F)F` (racemic) [Example 50], the “efficacy (no fertile eggs laid)” value in the series with Boophilus microplus turned out to be 100%. Also, the “efficacy (spider mites killed)” value in the series with Tetranychus urticae was 100%.
On to `Cc1ccc(-n2cncc(F)c2=O)cc1SCC(F)(F)F` [Example 12], for which, in the series on Meloidogyne incognita, the “nematicidal efficacy (formation of galls)” value (shortened to “nematicidal efficacy”) turned out to be 90%. For the same compound, the “efficacy (spider mites killed)” value in the series with Tetranychus urticae was 90%.
Consider `Cc1ccc(-n2cncc(C)c2=O)cc1[S+]([O-])CC(F)(F)F` (racemic) [Example 27], for which the “nematicidal efficacy” value in the series on Meloidogyne incognita was determined as 90%.
Turning to `O=c1cc(C(F)(F)F)ncn1-c1ccc(Cl)c([S+]([O-])CC(F)(F)F)c1` (racemic) [Example 34], the “efficacy (beetle larvae killed)” value with Phaedon cochleariae amounted to 83%. The “efficacy (no fertile eggs laid)” value with Boophilus microplus stood at 100%. Further, the “efficacy (spider mites killed)” value with Tetranychus urticae is 100%.
For `Cc1cc(F)c(-n2cnc(C(F)(F)C(F)(F)F)cc2=O)cc1[S+]([O-])CC(F)(F)F` (single isomer, unassigned) [Example 26], in the series with Meloidogyne incognita, the “nematicidal efficacy” value was 90%. The “efficacy (no fertile eggs laid)” value with Boophilus microplus is 100%. Moreover, in the series with Tetranychus urticae, the “efficacy (spider mites killed)” value worked out at 100%.
Take `Cc1ccc(-n2cnc(C(F)(F)F)cc2=O)cc1SCC(F)(F)F` [Example 47]: the “efficacy (no fertile eggs laid)” value with Boophilus microplus is given as 100%. Also, the “efficacy (spider mites killed)” value in the series on Tetranychus urticae amounted to 100%.
As to `O=c1cc(C(F)(F)F)ncn1-c1cc([S+]([O-])CC(F)(F)F)c(Br)cc1F` (racemic) [Example 41], the “nematicidal efficacy” value in the series on Meloidogyne incognita was 90%. The “efficacy (spider mites killed)” value with Tetranychus urticae was determined as 100%.
With `Cc1cc(C)c(-n2cnc(C(F)(F)F)cc2=O)cc1SCC(F)(F)F` [Example 5, 3-[2,4-Dimethyl-5-(2,2,2-trifluoroethylsulphanyl)phenyl]-6-(trifluoromethyl)pyrimidin-4-one], the chromatographic logP was found to be 3.56 in series [1] (acidic range, pH 2.7, 0.1% aqueous formic acid/acetonitrile, read-out: logP (HCOOH)) and 3.5 in series [1] (neutral range, pH 7.8, 0.001 molar aqueous ammonium hydrogencarbonate/acetonitrile, read-out: logP (neutral)). In addition, in the series on Boophilus microplus, the “efficacy (no fertile eggs laid)” value was 100%. For the same compound, the “efficacy (spider mites killed)” value in the series on Tetranychus urticae stood at 100%.
`O=c1cc(C(F)(F)F)ncn1-c1cc([S+]([O-])CC(F)(F)F)c(Cl)cc1Cl` (racemic) [Example 4]: the “efficacy (no fertile eggs laid)” value in the series with Boophilus microplus is 100%. Further, in the series with Tetranychus urticae, the “efficacy (spider mites killed)” value stood at 100%.
On to `Cc1cc(F)c(-n2cnc(C(F)F)cc2=O)cc1[S+]([O-])CC(F)(F)F` (racemic) [Example 55], for which, in the series on Phaedon cochleariae, the “efficacy (beetle larvae killed)” value turned out to be 100%. Besides, the “efficacy (spider mites killed)” value with Tetranychus urticae came to 100%.
For `Cc1cc(C)c(-n2c(C)nc(C(F)(F)F)cc2=O)cc1SCC(F)(F)F` [Example 30], in the series on Meloidogyne incognita, the “nematicidal efficacy” value amounted to 90%. For the same compound, the “efficacy (spider mites killed)” value with Tetranychus urticae is on record as 100%.
With `Cc1cc(Cl)c(-n2cnc(C(F)(F)F)cc2=O)cc1SCC(F)(F)F` [Example 59], the “efficacy (no fertile eggs laid)” value in the series with Boophilus microplus is reported as 100%. In addition, in the series with Tetranychus urticae, the “efficacy (spider mites killed)” value turned out to be 100%.
In the case of `Cc1cc(=O)n(-c2cc([S+]([O-])CC(F)(F)F)c(C)cc2F)cn1` (racemic) [Example 46], in the series with Phaedon cochleariae, the “efficacy (beetle larvae killed)” value came to 83%. The “efficacy (spider mites killed)” value in the series with Tetranychus urticae is recorded as 100%.
With `Cc1cc(F)c(-n2cnc(C(C)(F)F)cc2=O)cc1SCC(F)(F)F` [Example 22], in the series on Boophilus microplus, the “efficacy (no fertile eggs laid)” value stood at 100%. In addition, the “efficacy (spider mites killed)” value in the series with Tetranychus urticae came out at 100%.
As for `Cc1cc(C)c([S+]([O-])CC(F)(F)F)cc1-n1cnc(C(F)(F)C(F)(F)F)cc1=O` (racemic) [Example 45], in the series with Meloidogyne incognita, the “nematicidal efficacy” value stood at 100%. In addition, in the series with Tetranychus urticae, the “efficacy (spider mites killed)” value worked out at 100%.
Take `Cc1cc(C)c([S+]([O-])CC(F)(F)F)cc1-n1cnc(C(F)(F)C(F)(F)F)cc1=O` (racemic) [Example 33]: in the series with Meloidogyne incognita, the “nematicidal efficacy” value was determined as 100%. The “efficacy (spider mites killed)” value in the series on Tetranychus urticae amounted to 100%.
Turning to `Cc1cc(F)c(-n2cnc(C(F)(F)C(F)(F)F)cc2=O)cc1[S+]([O-])CC(F)(F)F` (single isomer, unassigned) [Example 18], the “efficacy (beetle larvae killed)” value with Phaedon cochleariae turned out to be 83%. Moreover, in the series on Tetranychus urticae, the “efficacy (spider mites killed)” value is reported as 100%.
Turning to `Cc1cc(=O)n(-c2cc(SCC(F)(F)F)c(C)cc2F)cn1` [Example 44], the “efficacy (beetle larvae killed)” value in the series with Phaedon cochleariae is reported as 100%. Further, in the series on Tetranychus urticae, the “efficacy (spider mites killed)” value turned out to be 100%.
